# Data published in patent publication US20150176022A1, “HERBICIDE-RESISTANT SUNFLOWER PLANTS, POLYNUCLEOTIDES ENCODING HERBICIDE=RESISTANT ACETO HYDROXY ACID SYNTHASE LARGE SUBUNIT PROTEINS, AND METHODS OF USE” (priority 2013, published 2015).
# What was measured:
# Assay in all cases: Greenhouse whole-plant imazapir dose response (Example 8)
# Assay type in all cases: in vivo, Helianthus annuus
# Conditions in all cases: 14 DAT
# [1] = system: sunflower IR79 (Restorer Line, A205V)
# Procedure: (§1) A greenhouse study was conducted to quantify and contrast the imazapir sensitivity of the mutants A122T and A205V in different genetic backgrounds at the whole plant level in sunflower. Seeds of the different sunflower lines that were used in this study were obtained under field conditions.
# (§2) Seeds were sown in Petri dishes and, after germination, plantlets were transplanted to pots of 10 cm of diameter in a potting media consisting of equal parts of vermiculite, soil and sand. Plants were grown in a greenhouse under natural light conditions supplemented with 400 W sodium halide lamps to provide a 16 hrs daylength. Day/night temperatures were 25 and 20° C., respectively. At the V2 stage 10 plants of each genotype were randomly assigned to each treatment consisting of […] imazapir doses (0, 40, 80, 160, 240, 320, 400 and 480 g ai/ha), and a zero-time biomass determination. Experiment was arranged as a randomized block design with a full factorial (sunflower line×treatment) arrangement of treatments and 10 replications.
# (§3) On the day of herbicide application ten plants of each genotype were cut at the cotyledonal node and dried at 60° C. for 48 hrs zero-time for dried weight determination. […] Height was determined as the distance between the cotyledonal node and the apex of each plant. For root biomass determination, each plant was taken from the pot and the potting media was washed out from the roots. Above ground biomass data from each line were converted to biomass accumulation after application by subtracting the appropriate average zero-time biomass from each sample. Dry biomass data were converted to percentages of the untreated control plants within each line to allow direct comparisons between groups.
# [2] = system: sunflower TH10 (Restorer Line, A205V)
# Procedure: as §1, §2, §3
# [3] = system: sunflower TH12 (Restorer Line, A122T)
# Procedure: as §1, §2, §3
compound,measurement,setting,value
"CC(C)C1(C)N=C(c2ncccc2C(=O)O)NC1=O (stereo not shown) [imazapir, imazapyr]",plant height (% of untreated),[1]; 3× (240 g ai/ha),55.7%
same,root dry weight (% of untreated),[1]; 3× (240 g ai/ha),38.4%
same,"biomass accumulation (dry biomass, % of untreated)",[1]; 4× (320 g ai/ha),44.5%
same,plant height (% of untreated),[1]; 4× (320 g ai/ha),52.8%
same,root dry weight (% of untreated),[1]; 4× (320 g ai/ha),31.5%
same,"biomass accumulation (dry biomass, % of untreated)",[1]; 5× (400 g ai/ha),40.1%
same,plant height (% of untreated),[1]; 5× (400 g ai/ha),41.7%
same,root dry weight (% of untreated),[1]; 5× (400 g ai/ha),23.3%
same,"biomass accumulation (dry biomass, % of untreated)",[1]; 6× (480 g ai/ha),35.3%
same,plant height (% of untreated),[1]; 6× (480 g ai/ha),33.2%
same,root dry weight (% of untreated),[1]; 6× (480 g ai/ha),21.9%
same,Phytotoxicity Index,[2]; 0.5× (40 g ai/ha),0
same,"biomass accumulation (dry biomass, % of untreated)",[2]; 0.5× (40 g ai/ha),99.2%
same,plant height (% of untreated),[2]; 0.5× (40 g ai/ha),99.2%
same,root dry weight (% of untreated),[2]; 0.5× (40 g ai/ha),90.3%
same,Phytotoxicity Index,[2]; 1× (80 g ai/ha),0
same,"biomass accumulation (dry biomass, % of untreated)",[2]; 1× (80 g ai/ha),85.0%
same,plant height (% of untreated),[2]; 1× (80 g ai/ha),98.1%
same,root dry weight (% of untreated),[2]; 1× (80 g ai/ha),69.9%
same,Phytotoxicity Index,[2]; 2× (160 g ai/ha),3.1
same,"biomass accumulation (dry biomass, % of untreated)",[2]; 2× (160 g ai/ha),58.1%
same,plant height (% of untreated),[2]; 2× (160 g ai/ha),63.6%
same,root dry weight (% of untreated),[2]; 2× (160 g ai/ha),41.3%
same,Phytotoxicity Index,[2]; 3× (240 g ai/ha),3.9
same,"biomass accumulation (dry biomass, % of untreated)",[2]; 3× (240 g ai/ha),48.1%
same,plant height (% of untreated),[2]; 3× (240 g ai/ha),51.9%
same,root dry weight (% of untreated),[2]; 3× (240 g ai/ha),42.8%
same,Phytotoxicity Index,[2]; 4× (320 g ai/ha),5.9
same,"biomass accumulation (dry biomass, % of untreated)",[2]; 4× (320 g ai/ha),28.8%
same,plant height (% of untreated),[2]; 4× (320 g ai/ha),27.5%
same,root dry weight (% of untreated),[2]; 4× (320 g ai/ha),22.3%
same,Phytotoxicity Index,[2]; 5× (400 g ai/ha),6.9
same,"biomass accumulation (dry biomass, % of untreated)",[2]; 5× (400 g ai/ha),27.4%
same,plant height (% of untreated),[2]; 5× (400 g ai/ha),28.0%
same,root dry weight (% of untreated),[2]; 5× (400 g ai/ha),22.7%
same,Phytotoxicity Index,[2]; 6× (480 g ai/ha),6.7
same,"biomass accumulation (dry biomass, % of untreated)",[2]; 6× (480 g ai/ha),24.9%
same,plant height (% of untreated),[2]; 6× (480 g ai/ha),29.3%
same,root dry weight (% of untreated),[2]; 6× (480 g ai/ha),16.4%
same,Phytotoxicity Index,[3]; 0.5× (40 g ai/ha),0.0
same,"biomass accumulation (dry biomass, % of untreated)",[3]; 0.5× (40 g ai/ha),100.0%
same,plant height (% of untreated),[3]; 0.5× (40 g ai/ha),100.0%
same,root dry weight (% of untreated),[3]; 0.5× (40 g ai/ha),99.4%
same,Phytotoxicity Index,[3]; 1× (80 g ai/ha),0.0
same,"biomass accumulation (dry biomass, % of untreated)",[3]; 1× (80 g ai/ha),99.1%
same,plant height (% of untreated),[3]; 1× (80 g ai/ha),100.0%
same,root dry weight (% of untreated),[3]; 1× (80 g ai/ha),100%
same,Phytotoxicity Index,[3]; 2× (160 g ai/ha),0.0
same,"biomass accumulation (dry biomass, % of untreated)",[3]; 2× (160 g ai/ha),97.0%
same,plant height (% of untreated),[3]; 2× (160 g ai/ha),101.8%
same,root dry weight (% of untreated),[3]; 2× (160 g ai/ha),100%
same,Phytotoxicity Index,[3]; 3× (240 g ai/ha),0.0
same,"biomass accumulation (dry biomass, % of untreated)",[3]; 3× (240 g ai/ha),96.1%
same,plant height (% of untreated),[3]; 3× (240 g ai/ha),97.0%
same,root dry weight (% of untreated),[3]; 3× (240 g ai/ha),100.0%
same,Phytotoxicity Index,[3]; 4× (320 g ai/ha),0.0
same,"biomass accumulation (dry biomass, % of untreated)",[3]; 4× (320 g ai/ha),84.3%
same,plant height (% of untreated),[3]; 4× (320 g ai/ha),92.1%
same,root dry weight (% of untreated),[3]; 4× (320 g ai/ha),74.5%
same,Phytotoxicity Index,[3]; 5× (400 g ai/ha),0.0
same,"biomass accumulation (dry biomass, % of untreated)",[3]; 5× (400 g ai/ha),77.5%
same,plant height (% of untreated),[3]; 5× (400 g ai/ha),84.8%
same,root dry weight (% of untreated),[3]; 5× (400 g ai/ha),65.0%
same,Phytotoxicity Index,[3]; 6× (480 g ai/ha),0.5
same,"biomass accumulation (dry biomass, % of untreated)",[3]; 6× (480 g ai/ha),70.7%
same,plant height (% of untreated),[3]; 6× (480 g ai/ha),79.8%
same,root dry weight (% of untreated),[3]; 6× (480 g ai/ha),57.8%
